Measurements published in ChEMBL document CHEMBL6127102 (Bioorg Med Chem, 2024).
Activity calls are given as the source filed them. The calls are words filed in the database; no cut-off is given here.

Assays:
[1] = system: MDA-MB-231; test: Induction of depolarization of mitochondrial membrane potential in human MDA-MB-231 cells at 5 uM incubated for 24 hrs by JC-1 staining based flow cytometry relative to control; type: functional
[2] = system: MDA-MB-231; test: Induction of apoptosis in human MDA-MB-231 cells assessed as increase in cleaved caspase-3 level at 5 uM incubated for 24 hrs by Western blot analysis; type: functional, cell-based
[3] = system: MDA-MB-231; test: Induction of DNA damage in human MDA-MB-231 cells assessed as increase in gamma-H2AX level at 5 uM incubated for 24 hrs by immunofluorescence based analysis; type: functional, cell-based
[4] = system: MDA-MB-231; test: Induction of apoptosis in human MDA-MB-231 cells assessed as decrease in Bcl-2 level at 5 uM incubated for 24 hrs by Western blot analysis; type: functional, cell-based
[5] = system: MDA-MB-231; test: Induction of DNA damage in human MDA-MB-231 cells assessed as increase in olive tail moments at 5 uM incubated for 24 hrs by Comet assay; type: functional, cell-based
[6] = system: MDA-MB-231; test: Induction of ROS generation in human MDA-MB-231 cells at 5 uM incubated for 24 hrs by DCFH-DA staining based flow cytometric analysis; type: functional, cell-based
[7] = Toxicity in BALB/c nude mouse xenografted with human MDA-MB-231 cells assessed as drug tolerance at 38 mg/kg, ip administered on every 2 days for 28 days; type: organism-based; details: in vivo, 672 h, time 28 day
[8] = system: MDA-MB-468; test: Antitumor activity against human MDA-MB-468 cells harboring wild-type BRCA incubated for 72 hrs by MTT assay; type: functional, cell-based; details: MDA-MB-468, 72 h
[9] = system: MDA-MB-231; test: Antitumor activity against human MDA-MB-231 cells xenografted in BALB/c nude mouse assessed as increase in apoptotic cells at 38 mg/kg, ip administered on every 2 days for 28 days by H and E staining based analysis; type: functional, organism-based; details: time 28.0 day
[10] = system: MDA-MB-231; test: Antitumor activity against human MDA-MB-231 cells harboring wild-type BRCA incubated for 72 hrs by MTT assay; type: functional, cell-based; details: MDA-MB-231, 72 h
[11] = Toxicity in BALB/c nude mouse xenografted with human MDA-MB-231 cells assessed as damage in liver at 38 mg/kg, ip administered on every 2 days for 28 days by H and E staining based analysis; type: organism-based; details: in vivo, 672 h, time 28 day
[12] = system: MDA-MB-436; test: Antitumor activity against BRCA 1-deficient human MDA-MB-436 cells incubated for 72 hrs by MTT assay; type: functional, cell-based; details: MDA-MB-436, 72 h
[13] = system: MDA-MB-231; test: Induction of apoptosis in human MDA-MB-231 cells as increase in red fluorescence at 5 uM incubated for 24 hrs by Calcein AM/PI staining based confocal microscopy; type: functional, cell-based
[14] = system: MDA-MB-231; test: Effect on total MEK in human MDA-MB-231 cells at 5 uM incubated for 24 hrs by Western blot analysis; type: functional, cell-based
[15] = system: MDA-MB-231; test: Effect on CRAF expression in human MDA-MB-231 cells at 5 uM incubated for 24 hrs by Western blot analysis; type: functional, cell-based
[16] = system: MDA-MB-231; test: Antitumor activity against human MDA-MB-231 cells xenografted in BALB/c nude mouse at 38 mg/kg, ip administered on every 2 days for 28 days relative to control; type: functional; details: MDA-MB-231, 672 h, time 28 day, read-out: TGI
[17] = Cytotoxicity against human MCF-10A cells incubated for 72 hrs by MTT assay; type: toxicity, cell-based
[18] = system: MDA-MB-231; test: Effect on MEK phosphorylation in human MDA-MB-231 cells at 5 uM incubated for 24 hrs by Western blot analysis; type: functional, cell-based
[19] = target: Poly [ADP-ribose] polymerase 1 (Homo sapiens, UniProt P09874); test: Inhibition of PARP1 (unknown origin) using histone as substrate incubated for 60 mins by ELISA
[20] = system: MDA-MB-231; test: Induction of apoptosis in human MDA-MB-231 cells assessed as increase in cleaved caspase-9 level at 5 uM incubated for 24 hrs by Western blot analysis; type: functional, cell-based
[21] = Toxicity in BALB/c nude mouse xenografted with human MDA-MB-231 cells assessed as damage in kidney at 38 mg/kg, ip administered on every 2 days for 28 days by H and E staining based analysis; type: organism-based; details: in vivo, 672 h, time 28 day
[22] = system: MDA-MB-231; test: Antitumor activity against human MDA-MB-231 cells xenografted in BALB/c nude mouse assessed as increase in necrotic cells at 38 mg/kg, ip administered on every 2 days for 28 days by H and E staining based analysis; type: functional, organism-based; details: time 28.0 day
[23] = system: HCC1937; test: Antitumor activity against BRCA 1-deficient human HCC1937 cells incubated for 72 hrs by MTT assay; type: functional, cell-based; details: HCC1937, 72 h
[24] = system: MDA-MB-231; test: Antitumor activity against human MDA-MB-231 cells xenografted in BALB/c nude mouse assessed as decrease in Ki-67 expression at 38 mg/kg, ip administered on every 2 days for 28 days by H and E staining based analysis; type: functional, organism-based; details: time 28.0 day
[25] = system: MDA-MB-231; test: Induction of apoptosis in human MDA-MB-231 cells assessed as increase in cleaved PARP level at 5 uM incubated for 24 hrs by Western blot analysis; type: functional, cell-based
[26] = Toxicity in BALB/c nude mouse xenografted with human MDA-MB-231 cells assessed as damage in heart at 38 mg/kg, ip administered on every 2 days for 28 days by H and E staining based analysis; type: organism-based; details: in vivo, 672 h, time 28 day
[27] = Toxicity in BALB/c nude mouse xenografted with human MDA-MB-231 cells assessed as damage in spleen at 38 mg/kg, ip administered on every 2 days for 28 days by H and E staining based analysis; type: organism-based; details: in vivo, 672 h, time 28 day
[28] = system: MDA-MB-231; test: Anti-migration activity in human MDA-MB-231 cells assessed as wound closure area at 1 uM incubated for 24 hrs by wound healing assay (reference value: 75.6 %); type: functional
[29] = Toxicity in BALB/c nude mouse xenografted with human MDA-MB-231 cells assessed as damage in lung at 38 mg/kg, ip administered on every 2 days for 28 days by H and E staining based analysis; type: organism-based; details: in vivo, 672 h, time 28 day
[30] = system: MDA-MB-231; test: Induction of apoptosis in human MDA-MB-231 cells at 5 uM incubated for 24 hrs by Annexin V-FITC/PI staining based flow cytometry relative to control; type: functional
[31] = system: MDA-MB-231; test: Induction of apoptosis in human MDA-MB-231 cells assessed as increase in Bax level at 5 uM incubated for 24 hrs by Western blot analysis; type: functional, cell-based
[32] = system: MDA-MB-231; test: Effect on ERK1/2 phosphorylation in human MDA-MB-231 cells at 5 uM incubated for 24 hrs by Western blot analysis; type: functional, cell-based
[33] = system: MDA-MB-231; test: Effect on RAF expression in human MDA-MB-231 cells at 5 uM incubated for 24 hrs by Western blot analysis; type: functional, cell-based
[34] = system: MDA-MB-231; test: Effect on total ERK1/2 in human MDA-MB-231 cells at 5 uM incubated for 24 hrs by Western blot analysis; type: functional, cell-based
[35] = Toxicity in BALB/c nude mouse xenografted with human MDA-MB-231 cells assessed as body weight change at 38 mg/kg, ip administered on every 2 days for 28 days; type: organism-based; details: in vivo, 672 h, time 28 day
[36] = system: MDA-MB-231; test: […] activity in human MDA-MB-231 cells at 1 uM incubated for 24 hrs by wound healing assay; type: functional, cell-based

Chain of Poly [ADP-ribose] polymerase 1 (P09874 whole entry): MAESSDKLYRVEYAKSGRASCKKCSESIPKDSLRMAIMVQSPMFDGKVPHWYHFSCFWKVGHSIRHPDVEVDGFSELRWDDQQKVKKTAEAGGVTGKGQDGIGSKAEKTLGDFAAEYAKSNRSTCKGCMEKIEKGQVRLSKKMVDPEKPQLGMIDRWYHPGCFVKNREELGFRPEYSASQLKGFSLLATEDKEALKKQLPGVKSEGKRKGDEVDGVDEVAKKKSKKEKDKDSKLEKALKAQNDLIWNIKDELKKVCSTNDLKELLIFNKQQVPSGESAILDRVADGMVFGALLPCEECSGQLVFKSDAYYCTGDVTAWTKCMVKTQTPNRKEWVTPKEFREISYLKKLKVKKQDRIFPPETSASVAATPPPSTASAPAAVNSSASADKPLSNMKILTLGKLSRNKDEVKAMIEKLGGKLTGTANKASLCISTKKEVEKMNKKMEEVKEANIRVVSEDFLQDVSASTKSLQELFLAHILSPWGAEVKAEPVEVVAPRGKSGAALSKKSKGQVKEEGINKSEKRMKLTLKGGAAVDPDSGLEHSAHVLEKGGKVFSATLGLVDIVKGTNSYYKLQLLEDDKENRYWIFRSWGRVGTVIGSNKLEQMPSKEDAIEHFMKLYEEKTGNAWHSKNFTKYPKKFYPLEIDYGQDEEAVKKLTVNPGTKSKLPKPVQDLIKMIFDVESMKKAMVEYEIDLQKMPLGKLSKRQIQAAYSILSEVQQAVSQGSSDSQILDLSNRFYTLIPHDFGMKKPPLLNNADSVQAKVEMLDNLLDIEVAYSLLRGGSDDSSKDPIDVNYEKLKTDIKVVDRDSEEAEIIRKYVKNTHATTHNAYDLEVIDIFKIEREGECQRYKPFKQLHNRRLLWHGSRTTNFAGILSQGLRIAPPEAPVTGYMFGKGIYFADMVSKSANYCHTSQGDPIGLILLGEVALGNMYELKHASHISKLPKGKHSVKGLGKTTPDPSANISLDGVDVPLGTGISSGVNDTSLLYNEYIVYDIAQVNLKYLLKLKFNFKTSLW

COc1cc(OC)c(/C=C/S(=O)(=O)Cc2ccc(OC)c(NCCCC(=O)N3CCN(C(=O)c4cc(Cc5n[nH]c(=O)c6ccccc56)ccc4F)CC3)c2)c(OC)c1
Activity [1]: Active
Activity [2]: Active
Activity [3]: Active
Activity [4]: Active
Activity [5]: Active
Activity [6]: Active
Activity [7]: Non-Toxic
IC50 [8]: 1240 nM
Activity [9]: Active
IC50 [10]: 750 nM
Activity [11]: Non-Toxic
IC50 [12]: 970 nM
Activity [13]: Active
Activity [14]: inactive
Activity [15]: Active
inhibition in vivo at 38 mg/kg [16]: 61.3%
IC50 at 72 h [17]: > 40000 nM
Activity [18]: Active
IC50 [19]: 112 nM
Activity [20]: Active
Activity [21]: Non-Toxic
Activity [22]: Active
IC50 [23]: 1170 nM
Activity [24]: Active
Activity [25]: Active
Activity [26]: Non-Toxic
Activity [27]: Non-Toxic
Activity [28]: 17.3%
Activity [29]: Non-Toxic
Activity [30]: 48.26%
Activity [31]: Active
Activity [32]: Active
Activity [33]: Active
Activity [34]: inactive
Activity [35]: Non-Toxic
Activity [36]: Active
